Experimental data from US20230068414A1, “Herbicide combinations comprising glufosinate and trifludimoxazin” (BASF SE, priority 2020, published 2023).

How the values were obtained:
[1] = system: Abutilon theophrasti (ABUTH); assay: Greenhouse postemergence weed control, percent injury vs untreated control; format: in vivo
From the text: (§1) For post-emergence treatments, glufosinate and trifludimoxazin, which had been suspended in water, were applied using spray nozzles providing fine to coarse droplets.
(§2) The herbicide compounds applied in the examples were used as experimental or commercially available solo or premix formulations which have been diluted with tap water to a suitable concentration. Glufosinate was used as a commercial SL formulation containing 280 g ai/l of glufosinate (Liberty 280 SL, BASF). While the PPO herbicide Vulcarus containing 500 g ai/l trifludimoxazin was used (Vulcarus 500 SC, BASF) formulation.
(§3) The evaluation for plant injury or damage caused by the chemical compositions was carried out using a scale from 0-100% when compared with the untreated control plants. Here, 0 means no damage and 100 means complete destruction of the plants.
(§4) 22., E=X+Y−(X*Y/100), where
(§5) X=effect in percent using herbicide A at an application rate of a;
(§6) Y=effect in percent using herbicide B at an application rate of b;
(§7) E=expected effect (in %) of A+B at application rates a+b.
(§8) The value E corresponds to the effect (plant damage or injury) which is to be expected if the activity of the individual compounds is just additive. If the observed effect is higher than the value E calculated according to Colby, a synergistic effect is present.
(§9) Weed Control of Glufosinate Plus Trifludimoxazin Mixtures (Greenhouse) Seedlings of velvetleaf (Abutilon theophrasti; ABUTH) and Palmer amaranth (Amaranthus palmeri; AMAPA were treated with postemergence applications of either glufosinate at 246 g ai/ha, trifludimoxazin at 6.25 g ai/ha, or the combination of glufosinate (246 g ai/ha) and trifludimoxazin (6.25 g ai/ha), respectively, when they were 5-10 cm in height. All glufosinate treatments contained 1% (w/v) ammonium sulfate and solo trifludimoxazin treatments contained 1% (w/v) ammonium sulfate plus 1% (v/v) MSO surfactant. Plants were placed in a completely randomized design with four replications per treatment. Percent injury data was collected 21 days after treatment (DAT).

[2] = system: Amaranthus palmeri (AMAPA); assay: as above; format: in vivo
From the text: as §1, §2, §3, §4, §5, §6, §7, §8, §9

SMILES	Solo Trifludimoxazin (6.25 g ai/ha) % activity ([1]; ABUTH seedlings 5-10 cm, postemergence, 6.25 g ai/ha, 1% ammonium sulfate plus 1% MSO, 21 DAT) [%]	Solo Trifludimoxazin (6.25 g ai/ha) % activity ([2]; AMAPA seedlings 5-10 cm, postemergence, 6.25 g ai/ha, 1% ammonium sulfate plus 1% MSO, 21 DAT) [%]	inhibition at 246 g/ha ([1]; Abutilon theophrasti, post-emergence, 504 h, read-out: Solo Glufosinate (246 g ai/ha) % activity) [%]	inhibition at 246 g/ha ([2]; Amaranthus palmeri, post-emergence, 504 h, read-out: Solo Glufosinate (246 g ai/ha) % activity) [%]
C#CCN1C(=O)C(F)(F)Oc2cc(F)c(-n3c(=O)n(C)c(=S)n(C)c3=O)cc21 [Trifludimoxazin]	70	63		
CP(=O)(O)CCC(N)C(=O)O (racemic) [Glufosinate, (2RS)-2-amino-4-[hydroxy(methyl)phosphinoyl]butyric acid]			23	48
